Data on 1 molecule can be found in paper PMC5302928, “[^64Cu]XYIMSR-06: A dual-motif CAIX ligand for PET imaging of clear cell renal cell carcinoma” (Oncotarget, 2016).

The series relates to CAIX-expressing SK-RC-52 ccRCC tumor xenografts. Nature of the series: Biodistribution of [Al18F]XYIMSR-04 in mice bearing SK-RC-52 xenografts. As to conditions: 1 h. In kind it is in vivo. On the procedure: The resulting Mice bearing SK-RC-52 xenografts within the solution was heated at 110 °C for 30 min. 0.6 mg of lower left flank were injected intravenously with 740 [Al19F]XYIMSR-04 was obtained as white crystal, after kBq (20 μCi) of [Al18F]XYIMSR-04 in 200 μL of PBS.
HPLC purification. Yield is 61 %. HPLC condition: At specific 1 hour time point mentioned in the paper, column Phenomenex, Luna 10 x 250 mm, 10 µ. 20/80/ mice (n = 5) were sacrificed by cervical dislocation and TFA MeCN/H O/TFA, flow 4 mL/min. Product was the blood was immediately collected by cardiac puncture. […]
eluded at 35.5 min. MS, calculated for C H AlFN N Heart, lungs, pancreas, spleen, fat, brain, muscle, small […]
aO S [M+Na] : 1426.4759; Found: 1426.4777. intestines, liver, bone, stomach, kidney, urinary bladder, […]
and tumor were collected. Each organ was weighed and Radiosynthesis the tissue radioactivity was measured with an automated gamma counter (1282 Compugamma CS, Pharmacia/
For convenience, Na18F in saline purchased from LKBNuclear, Inc., Mt. Waverly, Vic. Australia). The PETNET (Hackensack, NJ) was directly applied with to percentage of injected dose per gram of tissue (% ID/g) the synthesis with a slightly modified protocol (2). Due to was calculated by comparison with samples of a standard […]
reaction condition. corrected for radioactive decay.
Radiosynthesis of [Al18F]XYIMSR-04. 400μg of Data were expressed as mean ± standard deviation XYIMSR-04 in 200 μL water/Ethanol 1:1 was added to (SD). Prism software (GraphPAD, San Diego, California) 1 mL of Na18F in 0.9% saline containing 4.6-14.0 mCi was used to determine statistical significance. Statistical activity. To this mixture, 20 μL of 2 mM AlCl3/NaOAc significance was calculated using a paired t test. P-values solution and 200 μL of ethanol were added. The reaction < 0.0001 were considered significant. was kept at 105 °C for 20 min, then diluted to 2.0 mL The biodistribution data at 1 h is shown below. with water and loaded onto a preparative HPLC column The tumor uptake is 14.40%ID/g, with tumor-to –blood, for purification. Retention times for the radiolabeled -muscle and –kidney of 22.1, 9.74 and 0.28. compound, [Al18F]XYIMSR-04, and starting material, XYIMSR-04, were optimized to the point of baseline Imaging separation, with [Al18F]XYIMSR-04 eluting first.
[Al18F]XYIMSR-04 was obtained a radiochemical yield Mice harboring subcutaneous SK-RC-52 tumors of 4.3% (n=3) in specific radioactivity of 57-92 Ci/mmol with the lower left flank were injected with 7.4 MBq (200 in 1 hour. HPLC conditions: Phenomenex, Luna 10 x 250 μCi) of [Al18F]XYIMSR-04 in 250 µL of PBS (pH = 7.0) mm, 10μ. 20/80/0.1 MeCN/H2O/TFA, flow 4 mL/min. intravenously (tail vein). Anesthesia was then induced Product eluted at 35.5 min, while starting material eluted with 3% isofluorane and maintained at 2% isoflurane. […]
(also on this page, place not known: www.impactjournals.com/oncotarget/ Oncotarget, Supplementary Materials 2016 ([Al19F]XYIMSR-04). AlCl 3 2O/TFA, 57H79AlFN15N aO20S2 +: Na 18F [Al 18F]XYIMSR-04. XYIMSR-04 Na 18F AlCl 3/NaOAc [Al 18F]XYIMSR-04, [Al 18F]XYIMSR-04 MeCN/H 2O/TFA, [Al 19F]XYIMSR-04 [Al 18F]XYIMSR-04) […]

“And” between values parts separate entries of the source, which are not always exact repeats. Equal entries are not always repeated.

`CC(CCC(=O)N[C@@H](CC(=O)N[C@@H](CC(=O)N[C@@H](CCCCn1cc(CCCC(=O)Nc2nnc(S(N)(=O)=O)s2)nn1)C(=O)NCCOCCOCCNC(=O)CN1CCN2CCN(CC1)CC(=O)[O][Al]([18F])[O]C(=O)C2)C(=O)O)C(=O)O)(c1ccc(O)cc1)c1ccc(O)cc1` [[Al^18F]XYIMSR-04]: the Bladder uptake amounted to 20.12 ± 12.51 %ID/g, the Blood uptake turned out to be 0.65 ± 0.11 %ID/g, the Bone uptake was found to be 1.91 ± 1.39 %ID/g and the Brain uptake amounted to 0.66 ± 0.04 %ID/g. Also, the Fat uptake was 1.54 ± 0.25 %ID/g, the Heart uptake turned out to be 5.03 ± 0.51 %ID/g, the “Kidney (kid) uptake” value was 50.84 ± 2.65 %ID/g and the Liver uptake was determined as 5.55 ± 0.91 %ID/g. For the same molecule, the Lung uptake is listed as 34.07 ± 5.85 %ID/g, the “Muscle (mm) uptake” value is listed as 1.74 ± 0.58 %ID/g, the Pancreas uptake is given as 3.47 ± 0.16 %ID/g and the Sm. intestine uptake is given as 9.59 ± 1.04 %ID/g. The Spleen uptake is listed as 0.54 ± 0.18 %ID/g, the Stomach uptake is 21.62 ± 1.85 %ID/g, the Tumor uptake was found to be 14.4 ± 2.2 %ID/g and the “Tumor/kid (kidney) ratio” value is on record as 0.28 ± 0.03. Further, the “Tumor/mm (muscle) ratio” value is listed as 9.7 ± 2.9. Moreover, for the setting “listed as [Al18F]XYIMSR-04”, the Tumor/Blood ratio is 22.1 and 22.1 ± 1.5; the “Tumor/kid (kidney) ratio” value came out at 0.28; the “Tumor/mm (muscle) ratio” value turned out to be 9.74.
